Reference: the supplement of paper PMC10307832

Tests used:
Experiment in all cases: relative viability (nuclei count vs DMSO), 5 days (fraction); higher = more cells survive
[1] = compound: C1/C(=C\C2=CC=CS2)/C(=O)/C(=C/C3=CC=CS3)/C1 + NC(=O)Nc1cc(-c2cccc(F)c2)sc1C(=O)N[C@H]1CCCNC1 [AZD7762] (partner 0.2 µM)
Summary of the method: (§1)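 Lung cancer cell lines were seeded in 1536-well plates and dosed by pin tool the next day, with either a single drug or a fixed anchor-drug dose combined with five library-drug doses (not always all listed) spaced in √10 steps. Five days later, one step fixed the cells and stained their nuclei (final 0.05% Triton X-100, 1% formaldehyde, 1 ug/ml Hoechst), and nuclei were counted on 4× images. Relative viability is the nuclei count in treated wells divided by the count in vehicle wells, and each value is the median of duplicate plates.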

TPCA-1 + Palbociclib = compound: C1=CC(=CC=C1C2=CC(=C(S2)NC(=O)N)C(=O)N)F [TPCA-1] + CC(=O)c1c(C)c2cnc(Nc3ccc(N4CCNCC4)cn3)nc2n(C2CCCC2)c1=O [Palbociclib] (partner 0.5 µM)
Summary of the method: as §1

TPCA-1 + Linsitinib = compound: C1=CC(=CC=C1C2=CC(=C(S2)NC(=O)N)C(=O)N)F [TPCA-1] + C[C@]1(O)C[C@@H](c2nc(-c3ccc4ccc(-c5ccccc5)nc4c3)c3c(N)nccn32)C1 [Linsitinib] (partner 1 µM)
Summary of the method: as §1

[2] = compound: C[C@]12O[C@H](C[C@]1(O)CO)n1c3ccccc3c3c4c(c5c6ccccc6n2c5c31)CNC4=O [Lestaurtinib] + CC(=O)c1c(C)c2cnc(Nc3ccc(N4CCNCC4)cn3)nc2n(C2CCCC2)c1=O [Palbociclib] (partner 0.5 µM)
Summary of the method: as §1

Cell Line	relative viability ([1]; first compound 0.2 µM)	relative viability ([1]; first compound 0.6325 µM)	relative viability ([1]; first compound 2 µM)	relative viability ([1]; first compound 6.325 µM)	relative viability ([1]; first compound 20 µM)	relative viability (TPCA-1 + Palbociclib; first compound 0.04 µM)	relative viability (TPCA-1 + Palbociclib; first compound 0.1265 µM)	relative viability (TPCA-1 + Palbociclib; first compound 0.4 µM)	relative viability (TPCA-1 + Palbociclib; first compound 1.265 µM)	relative viability (TPCA-1 + Palbociclib; first compound 4 µM)	relative viability (TPCA-1 + Linsitinib; first compound 0.04 µM)	relative viability (TPCA-1 + Linsitinib; first compound 0.1265 µM)	relative viability (TPCA-1 + Linsitinib; first compound 0.4 µM)	relative viability (TPCA-1 + Linsitinib; first compound 1.265 µM)	relative viability (TPCA-1 + Linsitinib; first compound 4 µM)	relative viability ([2]; first compound 0.01581 µM)	relative viability ([2]; first compound 0.05 µM)	relative viability ([2]; first compound 0.1581 µM)	relative viability ([2]; first compound 0.5 µM)	relative viability ([2]; first compound 0.005 µM)
LCLC-97TM1	0.3	0.254	0.259	0.252	0.14	0.231	0.2	0.199	0.232	0.206	0.206	0.188	0.166	0.15	0.159	0.243	0.133	0.134	0.194	
LCLC-103H	0.772	0.742	0.9	0.613	0.783	0.52	0.519	0.465	0.473	0.494	1.24	0.99	1.08	1.12	1.07	0.506	0.497	0.474	0.51	0.524
LK-2	0.548		0.562	0.408	0.421	0.726		0.725	0.697	0.427	0.349	0.332	0.507	0.52	0.196	0.833	0.756	0.53	0.307	0.705
LOU-NH91	0.744	0.837	0.834	0.697	0.745	0.539	0.51	0.471	0.524	0.532	1.02	0.841	1	0.993	0.859	0.524	0.586	0.558	0.522	0.567
LU99A	0.413	0.295	0.415	0.248	0.29	0.468	0.365	0.407	0.369	0.258	0.486	0.45	0.513	0.341	0.306	0.392	0.285	0.271	0.185	0.371
LXF-289	1.07	1.13	1.16	1	1.07	0.623	0.605	0.627	0.643	0.514	0.94	0.969	0.932	0.962	0.793	0.633	0.443	0.49	0.234	0.624
NCI-H23	0.25	0.342	0.294	0.244	0.175	0.539	0.527	0.51	0.431	0.435	0.537	0.559	0.759	0.602	0.549	0.624	0.527	0.5	0.274	0.578
NCI-H322M	0.491	0.58	0.484	0.518	0.521	0.469	0.469	0.488	0.523	0.403	1.02	0.834	0.952	0.803	0.607	0.497		0.515	0.519	0.473
